From patent publication US7592160B2, “Processes for producing isomaltose and isomaltitol and use thereof” (Kabushiki Kaisha Hayashibara Seibutsu Kagaku Kenkyujo, priority 2001, dated 2009)

Assays:
[1] = system: α-isomaltosyl-transferring enzyme; experiment: Influence of metal ions on α-isomaltosyl-transferring enzyme activity (C11 strain); format: biochemical, Bacillus globisporus C11 strain; settings: for Relative activity (%): in the presence of 1 mM of each metal-ion, None = 100; for effect on the enzyme activity, in words: 1 mM, text on Table 8
Method: (§1) The activity of α-isomaltosyl-transferring enzyme was assayed by dissolving panose in 100 mM acetate buffer (pH 6.0) to give a concentration of 2% (w/v) for a substrate solution, adding a 0.5 ml of an enzyme solution to 0.5 ml of the substrate solution, enzymatically reacting the mixture solution at 35° C. for 30 min, suspending the enzymatic reaction by boiling the solution for 10 min, and quantifying glucose, among the cyclotetrasaccharide and glucose formed mainly in the reaction mixture, by the glucose oxidase method. One unit activity of α-isomaltosyl-transferring enzyme is defined as the enzyme amount that forms one micromole of glucose per minute under the above enzymatic reaction conditions. Throughout the specification, the enzymatic activity of α-isomaltosyl-transferring enzyme means the unit(s) assayed as above.
(§2) The influence of metal ions on the activity of α-isomaltosyl-transferring enzyme was examined in the presence of 1 mM of each metal-ion according to the assay for its enzyme activity.

[2] = system: α-isomaltosylglucosaccharide-forming enzyme; experiment: Influence of metal ions on α-isomaltosylglucosaccharide-forming enzyme activity (A19 strain); format: biochemical, Arthrobacter globiformis A19 strain; settings: for Relative activity (%): in the presence of 1 mM of each metal-ion, None = 100
[3] = system: α-isomaltosyl-transferring enzyme; experiment: Influence of metal ions on α-isomaltosyl-transferring enzyme activity (N75 strain); format: biochemical, Bacillus globisporus N75 strain; settings: for Relative activity (%): in the presence of 1 mM of each metal-ion, None = 100; for effect on the enzyme activity, in words: 1 mM, Table 14
Method: as §1
The influence of temperature and pH on the activity of α-isomaltosyl-transferring enzyme was examined in accordance with the assay for its enzyme activity. […] The thermal stability of the enzyme was determined by incubating the testing enzyme solutions in the form of 20 mM acetate buffer (pH 6.0) at prescribed temperatures for 60 min, cooling the resulting enzyme solutions with water, and assaying the remaining enzyme activity of each solution. The pH stability of the enzyme was determined by keeping the testing enzyme solutions in the from of 50 mM buffers having prescribed pHs at 4° C. for 24 hours, adjusting the pH of each solution to 6.0, and assaying the remaining enzyme activity of each solution. […] The influence of metal ions on the activity of α-isomaltosyl-transferring enzyme was examined in the presence of 1 mM of each metal-ion according to the assay for its enzyme activity.

[4] = system: α-isomaltosyl-transferring enzyme; experiment: Influence of metal ions on α-isomaltosyl-transferring enzyme activity (S1 strain); format: biochemical, Arthrobacter ramosus S1 strain; settings: for Relative activity (%): in the presence of 1 mM of each metal-ion, None = 100; for effect on the enzyme activity, in words: 1 mM, Table 21
Method: as §1, §2

[5] = system: α-isomaltosyl-transferring enzyme; experiment: Influence of metal ions on α-isomaltosyl-transferring enzyme activity (C9 strain); format: biochemical, Bacillus globisporus C9 strain; settings: for Relative activity (%): in the presence of 1 mM of each metal-ion, None = 100; for effect on the enzyme activity, in words: 1 mM, Table 4
Method: as §1, §2

[6] = system: α-isomaltosylglucosaccharide-forming enzyme; experiment: Influence of metal ions on α-isomaltosylglucosaccharide-forming enzyme activity (C11 strain); format: biochemical, Bacillus globisporus C11 strain; settings: for effect on the enzyme activity, in words: 1 mM, Table 7; for Relative activity (%): in the presence of 1 mM of each metal-ion, None = 100
[7] = system: α-isomaltosylglucosaccharide-forming enzyme; experiment: Influence of metal ions on α-isomaltosylglucosaccharide-forming enzyme activity (N75 strain); format: biochemical, Bacillus globisporus N75 strain; settings: for Relative activity (%): in the presence of 1 mM of each metal-ion, None = 100; for effect on the enzyme activity, in words: 1 mM, Table 13
Method: (§3) About 20 L of a fresh preparation of the same liquid culture medium as used in the above seed culture were placed in a 30-L fermentor, sterilized by heating, and then cooled to 27° C. and inoculated with 1% (v/v) of the seed culture, followed by culturing at 27° C. and pH 6.0 to 8.0 for 48 hours under aeration-agitation conditions. […] These activities were assayed as follows: The activity of α-isomaltosylglucosaccharide-forming enzyme was assayed by dissolving maltotriose in 100 mM acetate buffer (pH 6.0) to give a concentration of 2% (w/v) for a substrate solution, adding a 0.5 ml of an enzyme solution to a 0.5 ml of the substrate solution, enzymatically reacting the mixture solution at 35° C. for 60 min, suspending the enzymatic reaction by boiling the solution for 10 min, and quantifying maltose, among the isomaltosyl maltose and maltose formed mainly in the reaction mixture, on HPLC disclosed in Experiment 1. One unit activity of α-isomaltosylglucosaccharide-forming enzyme is defined as the enzyme amount that forms one micromole of maltose per minute under the above enzymatic reaction conditions. Throughout the specification, the enzymatic activity of α-isomaltosylglucosaccharide-forming enzyme means the unit(s) assayed as above.
(§4) The influence of metal ions on the activity of α-isomaltosylglucosaccharide-forming enzyme was examined in the presence of 1 mM of each metal-ion according to the assay for its enzyme activity.

[8] = system: α-isomaltosylglucosaccharide-forming enzyme; experiment: Influence of metal ions on α-isomaltosylglucosaccharide-forming enzyme activity (C9 strain); format: biochemical, Bacillus globisporus C9 strain; settings: for effect on the enzyme activity, in words: 1 mM, Table 3; for Relative activity (%): in the presence of 1 mM of each metal-ion, None = 100
Method: as §3, §4

## [Al+3] [Al^3+]
[1]
  Relative activity (%): 89%
[2]
  Relative activity (%): 37%
[3]
  Relative activity (%): 94%
[4]
  Relative activity (%): 93%
[5]
  Relative activity (%): 103%

## [Ba+2] [Ba^2+]
[1]
  Relative activity (%): 90%
[6]
  effect on the enzyme activity, in words: also inhibited
  Relative activity (%): 65%
[2]
  Relative activity (%): 99%
[3]
  Relative activity (%): 102%
[7]
  Relative activity (%): 84%
[4]
  Relative activity (%): 97%
[5]
  Relative activity (%): 102%
[8]
  effect on the enzyme activity, in words: also inhibited
  Relative activity (%): 65%

## [Ca+2] [Ca^2+]
[1]
  effect on the enzyme activity, in words: not activated
  Relative activity (%): 91%
[6]
  effect on the enzyme activity, in words: activated
  Relative activity (%): 109%
[2]
  Relative activity (%): 106%
[3]
  effect on the enzyme activity, in words: not activated
  Relative activity (%): 100%
[7]
  effect on the enzyme activity, in words: activated
  Relative activity (%): 108%
[4]
  effect on the enzyme activity, in words: neither activated
  Relative activity (%): 103%
[5]
  effect on the enzyme activity, in words: not activated
  Relative activity (%): 101%
[8]
  effect on the enzyme activity, in words: activated
  Relative activity (%): 115%

## [Co+2] [Co^2+]
[1]
  Relative activity (%): 89%
[6]
  Relative activity (%): 96%
[2]
  Relative activity (%): 93%
[3]
  Relative activity (%): 92%
[7]
  Relative activity (%): 93%
[4]
  Relative activity (%): 91%
[5]
  Relative activity (%): 103%
[8]
  Relative activity (%): 100%

## [Cu+2] [Cu^2+]
[1]
  effect on the enzyme activity, in words: also inhibited
  Relative activity (%): 56%
[6]
  effect on the enzyme activity, in words: strongly inhibited
  Relative activity (%): 23%
[2]; 1 mM, Table 19
  effect on the enzyme activity, in words: strongly inhibited
[2]
  Relative activity (%): 0%
[3]
  effect on the enzyme activity, in words: also inhibited
  Relative activity (%): 15%
[7]
  effect on the enzyme activity, in words: strongly inhibited
  Relative activity (%): 7%
[4]
  effect on the enzyme activity, in words: also inhibited
  Relative activity (%): 2%
[5]
  effect on the enzyme activity, in words: also inhibited
  Relative activity (%): 57%
[8]
  effect on the enzyme activity, in words: strongly inhibited
  Relative activity (%): 15%

## [Fe+2] [Fe^2+]
[1]; listed as Fe^3+
  Relative activity (%): 88%
[2]
  Relative activity (%): 36%
[2]; listed as Fe^3+
  Relative activity (%): 35%
[3]; listed as Fe^3+
  Relative activity (%): 90%
[7]
  Relative activity (%): 82%
[4]; listed as Fe^3+
  Relative activity (%): 75%

## [Mn+2] [Mn^2+]
[6]
  effect on the enzyme activity, in words: activated
  Relative activity (%): 142%
[7]
  effect on the enzyme activity, in words: activated
  Relative activity (%): 120%
[5]
  Relative activity (%): 106%
[8]
  effect on the enzyme activity, in words: activated
  Relative activity (%): 111%

## [Ni+2] [Ni^2+]
[1]
  Relative activity (%): 89%
[2]
  Relative activity (%): 46%
[3]
  Relative activity (%): 91%
[4]
  Relative activity (%): 87%
[5]
  Relative activity (%): 102%
